The text below walks through data of publication PMC10072326, “Promising anticancer agents based on 8-hydroxyquinoline hydrazone copper(II) complexes” (Frontiers in Chemistry, 2023).

Data set [1] is described as follows: Thermodynamic solubility at pH 7.4. In kind it is physicochemical. The note with it: Cu(II) complexes; pH 7.40; 20 mM HEPES; 25.0°C. As to the method:
Thermodynamic solubility (S) was measured for the new ligands, L^7 and L^8, since data for the rest of the series was previously reported (9), and for selected Cu(II) complexes: 1, 5 and 6. Solubility was measured for the saturated solutions in water at pH 7.40 in 20 mM HEPES at 25.0 ± 0.1 °C. The concentration was determined by UV-Vis spectrophotometry using the stock solutions of the compounds with known concentrations dissolved in 100% DMSO, 50% and 25% (v/v) DMSO/buffered aqueous solutions for the calibration.

Data set [2] has as its target bovine serum albumin (BSA) (Bos taurus, UniProt P02769). The experiment in a line: BSA fluorescence quenching. It is filed as binding. Details: Affinity constant K ± SD: unit not given here. The note with it: fluorescence quenching; HypSpec2014; 1:1 species assumed. How it is done: To evaluate the interaction of the compounds, both organic and Cu(II) complexes, with bovine serum albumin (BSA) fluorescence spectra were measured. In a typical fluorescence experiment, to a solution of 1.5 μM of BSA in the same buffer, successive aliquots of a stock solution of each compound in DMSO were added directly to the cuvette (optical path 1.0 cm). The fluorescence emission was recorded between 310 and 600 nm with excitation at 295 nm. The final DMSO % was kept below 2% (v/v). The Stern-Volmer plots were built using the emission at 340 nm and blank samples (in the absence of BSA) with the same concentration of the complexes were recorded and subsequently subtracted from the corresponding emission spectra containing the fluorophore. Moreover, the fluorescence emission intensity was corrected for reabsorption and inner filter effects using UV-Vis absorption data recorded for each sample, since all complexes absorb in the measured wavelength range (19, 20).
The interaction of the organic compounds and Cu(II) complexes with BSA was monitored by studying the quenching of albumin’s fluorescence emission with increasing concentrations of the complexes (25). Overall, the intensity of the Trp emission decreases with the addition of the complexes, except for 8 (see Figs. S19). The Stern-Volmer relationship was used to analyse the fluorescence quenching process:
where I0 and I are the fluorescence intensities in the absence and in the presence of quencher, kq is the bimolecular quenching rate, τ0 is the fluorophore lifetime in the absence of the quencher (6.22 ns) (26) and [Q] is the quencher concentration. […] This linear relationship is obeyed for all complexes except 5, where a downward curvature is observed. This can be an indication of two distinct binding sites, corresponding to two populations of fluorophores, one being accessible and other inaccessible or buried inside the protein. In such cases, the Stern-Volmer relation can be modified to (27):
where ΔI = I0 – I, Ka is the Stern-Volmer constant for the accessible fraction and fa is the fraction of accessible fluorophore. […] As first approximation, the total concentration of quencher was used to check the quenching mechanism. […] As all systems presented high absorbance values in the measured range of wavelengths, no excess of quencher was used and, therefore, 1:1 species will be assumed for these interactions.

Data set [3] relates to A-375 cells. In words: Sulforhodamine B (SRB) cell viability assay. The note with it: 72 h. In kind it is cell-based. How it is done:
(§1) Copper compounds were tested, along with the free ligands and cisplatin as the positive control, for their cytotoxicity on both melanoma (A-375) and lung adenocarcinoma (A-549) cell lines in the concentration range 0.78–50 μM. Following 72 h of incubation, cell viability was measured via sulforhodamine B (SRB) assay (Supplementary Figure S25).
(§2) A-375 cells (ATCC, CRL-3222) were grown in Dulbecco’s Modified Eagle Medium with high glucose (Gibco #11965118) and A-549 (ATCC, CCL-185) cells were grown in Dulbecco’s Modified Eagle Medium F-12 (Gibco #11320033), supplemented with 10% FBS (Gibco, #10500064) and Penicillin-Streptomycin (10,000 U/mL, Gibco, #15140122). Cells were incubated at 37 °C, 5% CO2 incubator and subcultured every 3 days.
(§3) All the tested complexes were dissolved in DMSO (10 mM stock solution), and aliquots were stored at -20 °C, thawed on the experiment day and used only once. For SRB cell viability assay, A-375 and A-549 cells were seeded on 96-well plates (4×10^3 cells/well) and treated with serial dilutions of indicated compounds (with a concentration range of 0-50 μM, 72 h). Trichloroacetic acid (TCA) was added to wells for fixation at a final concentration of 10%, for 1 h at 4 °C. Each well was washed five times with ddH2O, dried, and incubated with 0.4% (w/v) SRB dye (50 µL/well) for 30 min at room temperature. The wells were washed with 1% acetic acid (v/v) five times, and 150 µL of 10 mM Tris solution was added to dissolve the stain. Colorimetric measurements were taken at λ = 564 nm. Viability percentage was calculated as follows: % Cell Viability = [100 × (sample Abs.-blank) / (non-treated control Abs.-blank)].

Data set [4] deals with A-549 cells. In words: Sulforhodamine B (SRB) cell viability assay. It is filed as cell-based. The note with it: 72 h. As to the method: as §1, §2, §3
Data set [5] is described as follows: Cu(II) complex formation and stability constants by UV-Vis spectrophotometric titrations. In kind it is physicochemical. The note with it: physiological pH; 1 μM concentration. How it is done: The complex formation processes of L^1, L^5 and L^6 with Cu(II) ions were studied by UV-Vis spectrophotometry in 30% (v/v) DMSO/H2O using relatively low concentrations (c L = 50–60 μM), due to the limited water solubility of the ligand precursors as well as of the Cu(II) complexes (see thermodynamic solubility data in aqueous media in Table 2 and Table 3). L^1 was selected as the simplest compound of the studied ligand series, whereas L^5 and L^6 were selected to compare with the oxidovanadium(IV) system ([Ribeiro et al., 2022]). The solution stability and stoichiometry of the Cu(II) complexes were determined by the evaluation of the UV-Vis spectra recorded at various pH values (representative spectra are shown for the Cu(II) ‒ L^1 and Cu(II) ‒ L^6 systems in Figures 3A,B and for Cu(II) ‒ L^5 in Supplementary Figure S10A). The computed overall stability constants and pK a values of the complexes are collected in Table 3. The formation of only mono-ligand complexes was found with [Cu(LH)]^+, [Cu(L)], and [Cu(LH‒1)]^‒ (and [Cu(LH‒2)]^2‒ in the case of L^6) compositions, and their computed molar absorbance spectra are shown in Figures 3C, D, Supplementary Figure S10B.
An Agilent Cary 8454 diode array spectrophotometer was used to record the UV-Vis spectra in the range of 200–800 nm. Titrations were carried out with a Metrohm 665 Dosimat burette and an Orion 710A pH-meter equipped with a Metrohm combined electrode. A ionic strength of 0.10 M (KCl) was used to keep the activity coefficients constant. The titrations were performed with 0.10 M carbonate-free KOH solution in a 30% (v/v) DMSO/H2O solvent mixture. […] The average water ionization constant (pKw) is 14.53 ± 0.05 in the 30% (v/v) DMSO/H2O solvent mixture. The pKa values of the ligand precursors and the logβ values for the Cu(II) complexes were determined in 30% (v/v) DMSO/H2O in the same way as it was done in our previous publications (9, 11).
Spectrophotometric titrations were carried out on samples containing the ligands at 50 μM concentration, in the pH range from 2.0 to 11.5 in the absence or the presence of 1, 0.5 or 0.25 equiv. Cu(II) ions, using 10 cm^3 sample volumes. Proton dissociation constants (pKa) of the ligand precursors as well as stoichiometry and stability constants of the Cu(II) complexes (β) were calculated by the computer program PSEQUAD (12). The usual definition of overall (β) and stepwise (K) formation constants is used: […]

For data set [6], the system named is S. aureus ATCC 25928. In words: MIC determination. It is filed as cell-based, Staphylococcus aureus. The note with it: S. aureus ATCC 25928 (sensitive); 18 h. How it is done:
(§4) Wild-type Escherichia coli K-12 AG100 strain [argE3 thi-1 rpsL xyl mtl Δ(gal-uvrB) supE44] expressing the AcrAB TolC efflux pump at its basal level and Klebsiella pneumoniae ATCC 49619 Gram-negative strains were studied in the experiments. Sensitive (ATCC 25928) and the methicillin-resistant (MRSA 272123) subspecies of Staphylococcus aureus were used as Gram-positive strains in the assays.
(§5) Minimum inhibitory concentration (MIC) values of selected compounds were determined in 96-well plates based on the Clinical and Laboratory Standard Institute guidelines (CLSI guidelines). The stock solutions of the compounds were dissolved in DMSO using 1.3 μL of Mueller Hinton Broth, and then two-fold serial dilutions were performed. The starting concentration of the compounds was 100 μM. Then 10^‒4 dilution of an overnight bacterial culture in 100 μL of medium was added to each well, except for the medium control wells.

Data set [7] has as its system S. aureus MRSA 272123. In words: MIC determination. It is filed as cell-based, Staphylococcus aureus. The note with it: 18 h. How it is done: as §4, §5
Data set [8] relates to Escherichia coli K-12 AG100. The experiment in a line: MIC determination. It is filed as cell-based. The note with it: E. coli; 18 h. How it is done:
as §4, §5

The subject of data set [9] is Klebsiella pneumoniae ATCC 49619. In words: MIC determination. The note with it: K. pneumoniae; 18 h. It is filed as cell-based. How it is done:
as §4, §5

Where only a bound is given, the exact number is not on record here.

Sequence of bovine serum albumin (BSA) (P02769 25-607): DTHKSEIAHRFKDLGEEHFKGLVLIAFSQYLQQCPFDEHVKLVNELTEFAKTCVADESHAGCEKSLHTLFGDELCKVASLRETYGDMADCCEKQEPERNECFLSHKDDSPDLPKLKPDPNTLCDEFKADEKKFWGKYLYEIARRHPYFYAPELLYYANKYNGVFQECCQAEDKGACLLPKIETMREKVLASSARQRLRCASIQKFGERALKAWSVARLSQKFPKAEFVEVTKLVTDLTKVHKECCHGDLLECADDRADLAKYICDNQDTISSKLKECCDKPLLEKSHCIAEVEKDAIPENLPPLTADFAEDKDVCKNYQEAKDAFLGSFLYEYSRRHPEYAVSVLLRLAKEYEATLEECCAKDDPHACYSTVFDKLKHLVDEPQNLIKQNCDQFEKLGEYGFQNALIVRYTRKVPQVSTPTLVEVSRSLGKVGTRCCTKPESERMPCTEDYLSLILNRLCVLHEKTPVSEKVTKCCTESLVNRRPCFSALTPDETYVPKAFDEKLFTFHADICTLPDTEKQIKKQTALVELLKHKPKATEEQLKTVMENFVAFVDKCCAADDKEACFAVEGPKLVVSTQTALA

What is called IC50 is the concentration needed to halve the response being measured. For the molecule `O=C([N-]N=Cc1ccc2cccc([O-])c2n1)c1ccc(Cl)cc1.O=C([N-]N=Cc1ccc2cccc([O-])c2n1)c1ccc(Cl)cc1.O=C([N-]N=Cc1ccc2cccc([O-])c2n1)c1ccc(Cl)cc1.[Cu+2].[Cu+2].[Cu+2]` [Complex 2, [Cu(L^2)]3], the “thermodynamic solubility S 7.4” value in data set [1] is under 1 µM. In addition, the “Affinity constant K ± SD” value in data set [2] was “(8.3 ± 0.1) × 10^4”. The IC50 in data set [3] amounted to 6.5 ± 0.8 µM; in [4] it was 9.3 ± 0.4 µM.

Take `CC(=O)[O-].Cc1ccc(C(=O)NN=Cc2ccc3cccc([O-])c3n2)cc1.[Cu+2]` [Complex 4, [Cu(HL^4)(AcO)]]: the “thermodynamic solubility S 7.4” value in data set [1] came out at 4.0 ± 0.2 µM. Moreover, in data set [2], the “Affinity constant K ± SD” value is “(3.2 ± 1.0) × 10^6”. The IC50 in data set [3] came to 2 ± 1.3 µM; in data set [4], 3.9 ± 0.6 µM.

The MIC is the lowest concentration that inhibits growth of the organism. Turning to `O=C([N-]N=Cc1ccc2cccc([O-])c2n1)c1ccc(O)cc1.O=C([N-]N=Cc1ccc2cccc([O-])c2n1)c1ccc(O)cc1.O=C([N-]N=Cc1ccc2cccc([O-])c2n1)c1ccc(O)cc1.[Cu+2].[Cu+2].[Cu+2]` [Complex 6, [Cu(L^6)]3], the “level of dissociation of the complex” value in [5] is “ca. 5%”. Besides, the “Affinity constant K ± SD” value in data set [2] is “(2.7 ± 0.8) × 10^5”. Further, the IC50 in data set [3] was 13.6 ± 0.9 µM; in data set [4], 16 ± 0.3 µM. Moreover, the MIC in data set [6], in data set [7], in data set [8] and in [9] was over 100 µM in each case.

On to `[Cl][Cu][Cl]` [CuCl2, reference compound], for which the minimum inhibitory concentration (MIC) in data set [6], in data set [7], in data set [8] and in [9] was over 100 µM throughout.

For `N.N.[Cl][Pt][Cl]` [cisplatin, reference compound], the results for the IC50 in [3] and in [4] were 11.2 ± 0.3 µM and 16.5 ± 3.4 µM, respectively.
